Activity data for nine compounds are collected here from ChEMBL document CHEMBL1145673, “Assay method for antihepatotoxic activity using galactosamine-induced cytotoxicity in primary-cultured hepatocytes” (J Nat Prod, 1983).

In data set [1] the test system is Hepatocyte. Description: Antihepatotoxic activity against 1.5 hrs galactosamine pretreatment-induced cytotoxicity in Wistar rat hepatocytes assessed as glutamic-pyruvic transaminase activity at 0.01 mg/ml after 30 hrs relative to control. It is filed as functional.
Data set [2] has as its system Hepatocyte. The data set is described as follows: Antihepatotoxic activity against 1.5 hrs galactosamine pretreatment-induced cytotoxicity in Wistar rat hepatocytes assessed as glutamic-pyruvic transaminase activity at 0.1 mg/ml after 30 hrs relative to control. The format is functional.
For data set [3], the system named is Hepatocyte. Description: Antihepatotoxic activity against 1.5 hrs galactosamine pretreatment-induced cytotoxicity in Wistar rat hepatocytes assessed as glutamic-pyruvic transaminase activity at 1 mg/ml after 30 hrs relative to control. It is filed as functional.
Data set [4] has as its system Hepatocyte. Description: Cytotoxicity in Wistar rat hepatocytes assessed as glutamic-pyruvic transaminase activity at 0.01 mg/ml after 30 hrs. It is filed as cell-based.
Data set [5] relates to Hepatocyte. The data set is described as follows: Cytotoxicity in Wistar rat hepatocytes assessed as glutamic-pyruvic transaminase activity at 0.1 mg/ml after 30 hrs. The format is cell-based.
For data set [6], the system named is Hepatocyte. The data set is described as follows: Cytotoxicity in Wistar rat hepatocytes assessed as glutamic-pyruvic transaminase activity at 1 mg/ml after 30 hrs. It is filed as cell-based.
Data set [7] relates to Hepatocyte. The data set is described as follows: Effect on 1.5 hrs galactosamine pretreatment-induced cytotoxicity in Wistar rat hepatocytes assessed as glutamic-pyruvic transaminase activity at 1 uM. The format is functional.
For data set [8], the system named is Hepatocyte. The data set is described as follows: Effect on 1.5 hrs galactosamine pretreatment-induced cytotoxicity in Wistar rat hepatocytes at 1 uM. The format is functional, cell-based.

Calls of active or inactive are those of the source. The rule behind the calls is not given here.

In the case of `COc1cc(C(=O)O[C@H]2[C@@H]3C=CO[C@@H](O[C@@H]4O[C@H](CO)[C@@H](O)[C@H](O)[C@H]4O)[C@@H]3[C@@]3(CO)O[C@@H]23)ccc1O` [PICROSIDE II], the Activity in data set [1] is 103%; in data set [2], 101%; in data set [3], 78%; in data set [4] it was 27 IU/L; in data set [5], 28 IU/L; in data set [6] it was 40 IU/L.
Take `CSCC[C@H](N)C(=O)O` [METHIONINE]: the Activity in data set [1] came out at 106%; in data set [2] it was 113%; in data set [3] it was 122%; in data set [4] it was 24 IU/L; in data set [5], 28 IU/L; in data set [6], 25 IU/L.
In the case of `COc1cc(C2Oc3cc([C@H]4Oc5cc(O)cc(O)c5C(=O)[C@@H]4O)ccc3OC2CO)ccc1O` (some centres undefined) [SILIBININ], the Activity is on record as 106% in data set [1]; 103% in data set [2]; 66% in data set [3]; 29 IU/L in data set [4]; 157 IU/L in data set [5]; 93 IU/L in data set [6].
With `O=C(/C=C/c1ccc(O)c(O)c1)O[C@@H]1C[C@@](OC(=O)/C=C/c2ccc(O)c(O)c2)(C(=O)O)C[C@@H](O)[C@@H]1O` [CYNARIN], the Activity in data set [1] is 95%; in data set [2], 84%; in data set [3] it was 48%; in data set [4], 20 IU/L; in data set [5], 27 IU/L; in data set [6], 51 IU/L.
For `CC1(C)[C@@H](O[C@H]2O[C@H](C(=O)O)[C@@H](O)[C@H](O)[C@H]2O[C@@H]2O[C@H](C(=O)O)[C@@H](O)[C@H](O)[C@H]2O)CC[C@]2(C)[C@H]3C(=O)C=C4[C@@H]5C[C@@](C)(C(=O)O)CC[C@]5(C)CC[C@@]4(C)[C@]3(C)CC[C@@H]12` [GLYCYRRHIZIN], the Activity in data set [1] was found to be 103%; in data set [2] it was 100%; in data set [3], 24%; in data set [4] it was 24 IU/L; in data set [5] it was 59 IU/L; in data set [6], 21 IU/L.
With `CC1(C)[C@@H](O)CC[C@]2(C)[C@H]3C(=O)C=C4[C@@H]5C[C@@](C)(C(=O)O)CC[C@]5(C)CC[C@@]4(C)[C@]3(C)CC[C@@H]12` [ENOXOLONE], the Activity in data set [2] is 58%; in data set [3], 27%; in data set [4], 26 IU/L; in data set [5], 16 IU/L; in data set [6] it was 42 IU/L.
Regarding `O=C(/C=C/c1ccccc1)OC[C@H]1O[C@@H](O[C@@H]2OC=C[C@H]3[C@H](O)[C@@H]4O[C@]4(CO)[C@@H]23)[C@H](O)[C@@H](O)[C@@H]1O` [PICROSIDE I], the Activity in data set [1] was 96%; in data set [2], 122%; in data set [3], 111%; in data set [4], 24 IU/L; in data set [5], 50 IU/L; in data set [6] it was 131 IU/L.
For `COc1cc([C@@H]2c3cc4c(cc3C[C@H]3COC(=O)[C@@H]32)OCO4)cc(OC)c1OC` [DESOXYPODOPHYLLOTOXIN], the Activity in data set [1] worked out at 93%; in data set [2] it was 50%; in data set [3] it was 92%; in data set [4], 43 IU/L; in data set [5], 35 IU/L; in data set [6], 137 IU/L.
In the case of `C[C@@H]1C[C@H]2[C@@H]3CCC4=CC(=O)C=C[C@]4(C)[C@@]3(F)[C@@H](O)C[C@]2(C)[C@@]1(O)C(=O)CO` [DEXAMETHASONE], the Activity in data set [7] worked out at 96 IU/L. Further, in data set [8], the outcome was inactive.
